Patent US12060347B2 (BRISTOL-MYERS SQUIBB COMPANY, priority 2016, dated 2024)

Molecular target: T1, human PAR4 (Homo sapiens, UniProt Q96RI0)
T1 construct: expressed in transfected cells; host or cells: HEK293 PAR4 Clone 1.2A (BMS Arctic ID 383940)
T1 sequence (Q96RI0 18-385): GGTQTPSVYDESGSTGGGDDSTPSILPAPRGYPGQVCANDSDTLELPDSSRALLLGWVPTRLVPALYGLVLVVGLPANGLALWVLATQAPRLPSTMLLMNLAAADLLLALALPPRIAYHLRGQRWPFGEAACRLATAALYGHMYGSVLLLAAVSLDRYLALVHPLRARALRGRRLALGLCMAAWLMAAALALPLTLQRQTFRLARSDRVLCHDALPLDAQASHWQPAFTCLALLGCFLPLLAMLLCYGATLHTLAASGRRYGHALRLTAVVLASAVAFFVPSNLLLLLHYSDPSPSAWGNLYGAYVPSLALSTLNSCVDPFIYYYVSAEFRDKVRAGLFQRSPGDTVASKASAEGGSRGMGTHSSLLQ
Test: PAR4 FLIPR assay: antagonism of agonist-peptide-induced calcium mobilization in PAR4-expressing HEK293 cells
Type: cell-based
Settings: H-Ala-Phe(4-F)-[…]NH2-induced intracellular calcium mobilization, 11-point curves

Row | Structure (SMILES) | IC50 [nM]
1 | COc1cnc2c(-c3nc4c(C)cc(OC[C@@H](C)OC(=O)Nc5cncc(C#N)c5)nc4s3)cc(C)cc2n1 [Example 735, (R)-1-((2-(2-methoxy-7-methylquinoxalin-5-yl)-7-methylthiazolo[5,4-b]pyridin-5-yl)oxy) propan-2-yl (5-cyanopyridin-3-yl)carbamate] | 1.1
2 | COc1cnc2c(-c3nc4c(C)cc(OC[C@@H](C)OC(=O)Nc5cnc(Cl)nc5)nc4s3)cc(C)cc2n1 [Example 736, (R)-1-((2-(2-methoxy-7-methylquinoxalin-5-yl)-7-methylthiazolo[5,4-b]pyridin-5-yl)oxy) propan-2-yl (2-chloropyrimidin-5-yl)carbamate] | 5.3
3 | COc1cnc2c(-c3nc4c(C)cc(OC[C@@H](C)OC(=O)Nc5cnc(C)nc5)nc4s3)cc(C)cc2n1 [Example 737, (R)-1-((2-(2-methoxy-7-methylquinoxalin-5-yl)-7-methylthiazolo[5,4-b]pyridin-5-yl)oxy) propan-2-yl (2-methylpyrimidin-5-yl)carbamate] | 8.1
4 | COc1cnc2c(-c3nc4c(C)cc(OC[C@@H](C)OC(=O)Nc5cnc(OC)nc5)nc4s3)cc(C)cc2n1 [Example 738, (R)-1-((2-(2-methoxy-7-methylquinoxalin-5-yl)-7-methylthiazolo[5,4-b]pyridin-5-yl)oxy) propan-2-yl (2-methoxypyrimidin-5-yl)carbamate] | 10
5 | COc1cnc2c(-c3nc4cc(F)c(OC[C@@H](C)OC(=O)Nc5ccc(C(=O)NCC(C)(C)O)nc5)nc4s3)cc(C)cc2n1 [Example 741, (R)-1-((6-fluoro-2-(2-methoxy-7-methylquinoxalin-5-yl)thiazolo[5,4-b]pyridin-5-yl)oxy) propan-2-yl (6-((2-hydroxy-2-methylpropyl)carbamoyl)pyridin-3-yl)carbamate] | 2.1
6 | COc1cnc2c(-c3nc4cc(F)c(OC[C@@H](C)OC(=O)Nc5ccc(C(=O)NC[C@@H](C)O)nc5)nc4s3)cc(C)cc2n1 [Example 747, (R)-1-((6-fluoro-2-(2-methoxy-7-methylquinoxalin-5-yl)thiazolo[5,4-b]pyridin-5-yl)oxy) propan-2-yl (6-(((R)-2-hydroxypropyl)carbamoyl)pyridin-3-yl)carbamate] | 2.4
7 | COc1cnc2c(-c3nc4cc(F)c(OC[C@@H](C)OC(=O)Nc5ccc(C(=O)NC[C@H](C)O)nc5)nc4s3)cc(C)cc2n1 [Example 748, (R)-1-((6-fluoro-2-(2-methoxy-7-methylquinoxalin-5-yl)thiazolo[5,4-b]pyridin-5-yl)oxy) propan-2-yl (6-(((S)-2-hydroxypropyl)carbamoyl)pyridin-3-yl)carbamate] | 2.9
8 | COc1cnc2c(-c3nc4cc(F)c(OC[C@@H](C)OC(=O)Nc5cnc(C(N)=O)nc5)nc4s3)cc(C)cc2n1 [Example 749, (R)-1-((6-fluoro-2-(2-methoxy-7-methylquinoxalin-5-yl)thiazolo[5,4-b]pyridin-5-yl)oxy) propan-2-yl (2-carbamoylpyrimidin-5-yl)carbamate] | 4.3
9 | COc1cnc2c(-c3nc4cc(F)c(O[C@@H](C)[C@@H](C)OC(=O)Nc5ccc(C(=O)NC[C@H](C)O)nc5)nc4s3)cc(C)cc2n1 [Example 750, (2R,3S)-3-((6-fluoro-2-(2-methoxy-7-methylquinoxalin-5-yl)thiazolo[5,4-b]pyridin-5-yl)oxy)butan-2-yl (6-(((S)-2-hydroxypropyl)carbamoyl)pyridin-3-yl)carbamate] | 1.1
10 | COc1cnc2c(-c3nc4cc(F)c(O[C@@H](C)[C@@H](C)OC(=O)Nc5cnc(C(=O)NCC(C)(C)O)nc5)nc4s3)cc(C)cc2n1 [Example 751, (2R,3S)-3-((6-fluoro-2-(2-methoxy-7-methylquinoxalin-5-yl)thiazolo[5,4-b]pyridin-5-yl)oxy)butan-2-yl (2-((2-hydroxy-2-methylpropyl)carbamoyl)pyrimidin-5-yl)carbamate] | 4.7
11 | COc1cnc2c(-c3nc4cc(F)c(O[C@@H](C)[C@@H](C)OC(=O)Nc5cnc(C(=O)NC[C@@H](C)O)nc5)nc4s3)cc(C)cc2n1 [Example 752, (2R,3S)-3-((6-fluoro-2-(2-methoxy-7-methylquinoxalin-5-yl)thiazolo[5,4-b]pyridin-5-yl)oxy)butan-2-yl (2-(((R)-2-hydroxypropyl)carbamoyl)pyrimidin-5-yl)carbamate] | 14
12 | COc1cnc2c(-c3nc4cc(F)c(O[C@@H](C)[C@@H](C)OC(=O)Nc5cnc(C(=O)NC[C@H](C)O)nc5)nc4s3)cc(C)cc2n1 [Example 753, (2R,3S)-3-((6-fluoro-2-(2-methoxy-7-methylquinoxalin-5-yl)thiazolo[5,4-b]pyridin-5-yl)oxy)butan-2-yl (2-(((S)-2-hydroxypropyl)carbamoyl)pyrimidin-5-yl)carbamate] | 12
13 | COc1cnc2c(-c3nc4cc(F)c(O[C@@H](C)[C@@H](C)OC(=O)Nc5ccc(C(N)=O)nc5)nc4s3)cc(C)cc2n1 [Example 754, (2R,3S)-3-((6-fluoro-2-(2-methoxy-7-methylquinoxalin-5-yl)thiazolo[5,4-b]pyridin-5-yl)oxy)butan-2-yl (6-carbamoylpyridin-3-yl)carbamate] | 0.3
14 | COc1cnc2c(-c3nc4cc(F)c(O[C@@H](C)[C@@H](C)OC(=O)Nc5cnc(C(N)=O)nc5)nc4s3)cc(C)cc2n1 [Example 755, (2R,3S)-3-((6-fluoro-2-(2-methoxy-7-methylquinoxalin-5-yl)thiazolo[5,4-b]pyridin-5-yl)oxy)butan-2-yl (2-carbamoylpyrimidin-5-yl)carbamate] | 0.3
15 | COc1cnc2c(-c3nc4c(C)cc(OCCNS(=O)(=O)c5ccc(C)cc5)nc4s3)cc(C)cc2n1 [Example 762, N-(2-((2-(2-methoxy-7-methylquinoxalin-5-yl)-7-methylthiazolo[5,4-b]pyridin-5-yl)oxy)ethyl)-4-methylbenzenesulfonamide] | 1.4
16 | COCc1cnc2c(-c3nc4c(C)c(F)c(OC)nc4s3)cc(C)cc2n1 [Example 763, 6-fluoro-5-methoxy-2-(2-(methoxymethyl)-7-methylquinoxalin-5-yl)-7-methylthiazolo[5,4-b]pyridine] | 4
17 | COc1cnc2c(-c3nc4cc(F)c(O[C@@H](C)[C@@H](C)OC(=O)Nc5cnc(CO)nc5)nc4s3)cc(C)cc2n1 [Example 764, (2R,3S)-3-((6-fluoro-2-(2-methoxy-7-methylquinoxalin-5-yl)thiazolo[5,4-b]pyridin-5-yl)oxy)butan-2-yl (2-(hydroxymethyl)pyrimidin-5-yl)carbamate] | 1.7
18 | COc1cnc2c(-c3nc4cc(F)c(O[C@@H](C)[C@@H](C)OC(=O)Nc5ccc(C(C)(C)O)nc5)nc4s3)cc(C)cc2n1 [Example 765, (2R,3S)-3-((6-fluoro-2-(2-methoxy-7-methylquinoxalin-5-yl)thiazolo[5,4-b]pyridin-5-yl)oxy)butan-2-yl (6-(2-hydroxypropan-2-yl)pyridin-3-yl)carbamate] | 0.8
19 | COc1cnc2c(-c3nc4cc(F)c(OC[C@@H](C)OC(=O)Nc5cnc(CO)nc5)nc4s3)cc(C)cc2n1 [Example 768, (R)-1-((6-fluoro-2-(2-methoxy-7-methylquinoxalin-5-yl)thiazolo[5,4-b]pyridin-5-yl)oxy)propan-2-yl (2-(hydroxymethyl)pyrimidin-5-yl)carbamate] | 10
20 | COc1cnc2c(-c3nc4cc(F)c(O[C@@H](C)[C@@H](C)OC(=O)Nc5cnc(C)nc5)nc4s3)cc(Cl)cc2c1 [Example 769, (2R,3S)-3-((2-(6-chloro-3-methoxyquinolin-8-yl)-6-fluorothiazolo[5,4-b]pyridin-5-yl)oxy)butan-2-yl (2-methylpyrimidin-5-yl)carbamate] | 3.2
21 | COc1cnc2c(-c3nc4cc(F)c(OC[C@@H](C)OC(=O)Nc5cnc(C)nc5)nc4s3)cc(Cl)cc2c1 [Example 770, (R)-1-((2-(6-chloro-3-methoxyquinolin-8-yl)-6-fluorothiazolo[5,4-b]pyridin-5-yl)oxy)propan-2-yl (2-methylpyrimidin-5-yl)carbamate] | 1.9
22 | COc1cnc2c(-c3nc4cc(F)c(O[C@@H](C)[C@@H](C)OC(=O)Nc5cnc(C)nc5)cc4s3)cc(F)cc2c1 [Example 772, (2R,3S)-3-((5-fluoro-2-(6-fluoro-3-methoxyquinolin-8-yl)benzo[d]thiazol-6-yl)oxy)butan-2-yl (2-methylpyrimidin-5-yl)carbamate] | 1.5
23 | COc1cnc2c(-c3nc4cc(F)c(O[C@@H](C)[C@@H](C)OC(=O)Nc5cnc(C)nc5)cc4s3)cc(CO)cc2c1 [Example 773] | 11
24 | COc1cnc2c(-c3nc4cc(F)c(O[C@@H](C)[C@@H](C)OC(=O)Nc5cnc(OCCO)nc5)nc4s3)cc(Cl)cc2c1 [Example 774, (2R,3S)-3-((2-(6-chloro-3-methoxyquinolin-8-yl)-6-fluorothiazolo[5,4-b]pyridin-5-yl)oxy) butan-2-yl (2-(2-hydroxyethoxy)pyrimidin-5-yl)carbamate] | 1.2
25 | COc1cnc2c(-c3nc4cc(F)c(O[C@@H](C)[C@@H](C)OC(=O)Nc5cnc(OCCO)nc5)nc4s3)cc(C)cc2c1 [Example 775, (2R,3S)-3-((6-fluoro-2-(3-methoxy-6-methylquinolin-8-yl)thiazolo[5,4-b]pyridin-5-yl)oxy)butan-2-yl (2-(2-hydroxyethoxy)pyrimidin-5-yl)carbamate] | 0.8
26 | COc1cnc2c(-c3nc4cc(F)c(O[C@@H](C)[C@@H](C)OC(=O)Nc5cncc(F)c5)nc4s3)cc(Cl)cc2c1 [Example 776, (2R,3S)-3-((2-(6-chloro-3-methoxyquinolin-8-yl)-6-fluorothiazolo[5,4-b]pyridin-5-yl)oxy)butan-2-yl (5-fluoropyridin-3-yl)carbamate] | 2.5
